Laboratory results published in PubChem BioAssay (NCI).
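Step 1: Grow cells in 96-well plates. Step 2: Expose to compound for 48 hours at 5 concentrations. Step 3: Interpolate endpoints linearly; if unreached, use highest concentration. Abbreviation: GI50, concentration required for 50% inhibition of growth. Definition used: TGI = concentration required for complete inhibition of growth.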 Calls of active or inactive are those of the source. No stated cut-off is given here; in the data, active means GI50 below about 0.43 µM; inactive means the rest.

Key:
Assay in all cases: NCI anticancer screen, dose series, 48 h
[1] = test system: COLO 205 colon
[2] = test system: EKVX NSCLC
[3] = test system: HT29 colon
[4] = test system: K-562 leukemia
[5] = test system: MOLT-4 leukemia
[6] = test system: NCI-H226 lung
[7] = test system: NCI-H522 lung

SMILES	TGI [1] [µM]	TGI [2] [µM]	TGI [3] [µM]	TGI [4] [µM]	TGI [5] [µM]	TGI [6] [µM]	TGI [7] [µM]	GI50 [1] [µM]	GI50 [2] [µM]	GI50 [3] [µM]	GI50 [4] [µM]	GI50 [5] [µM]	GI50 [6] [µM]	GI50 [7] [µM]	outcome [2]	outcome [5]	outcome [6]	outcome [7]
O=NN1C(c2ccccc2)CCCC1c1ccccc1 (stereo not given)	> 100	99.1	> 54.8	> 100	> 100	> 100	> 81.2	–	–	–	–	–	–	–	–	–	–	–
COc1cc(/C(=C2/O[C@@H]([C@H]3COC(C)(C)O3)[C@H]3OC(C)(C)O[C@@H]23)c2ccc3c(c2)OCO3)cc(OC)c1OC	> 25	> 25	> 25	> 25	> 25	> 25	> 25	> 25	> 25	> 25	> 25	> 25	> 25	> 25	–	–	–	–
CCOC(=O)C1=C(c2ccccc2)C12N(Cc1ccccc1)C(=O)C2(c1ccccc1)c1ccccc1 (stereo not given)	60.1	> 100	> 100	> 100	> 100	95.4	75.2	–	–	–	–	–	–	–	–	–	–	–
O=P(O)(O)CN1CCNCCN(CP(=O)(O)O)CCN(CP(=O)(O)O)CCNCC1	–	–	–	–	–	–	–	–	–	49000	–	–	–	–	inactive	inactive	inactive	inactive
COc1cc(-c2nc3cc(Cl)c(Cl)cc3[nH]2)ccc1OCC(=O)N=Nc1c(O)[nH]c2ccc(Cl)cc12	1.22	> 100	–	–	1.59	–	2.08	0.344	1.7	–	0.284	0.321	–	0.386	–	–	–	–
C[N+]1([O-])[C@H]2CC(OC(=O)[C@H](CO)c3ccccc3)C[C@H]1[C@H]1O[C@H]12 (stereo not given in full)	> 100	> 100	> 100	> 100	> 100	> 100	> 100	–	–	–	–	–	–	–	–	–	–	–
O=Cc1c(Br)[nH]c2ccccc12	> 100	> 100	> 100	> 100	> 72.6	> 100	> 100	–	–	–	–	–	–	–	–	–	–	–
COc1ccc([C@H]2c3cc4c(cc3OC(O)(CO)[C@H]2C(=O)O)OCO4)c(OC)c1 (stereo not given in full) (tested in a mixture with another compound)	> 100	> 100	> 100	> 100	> 100	> 100	–	–	–	–	–	–	–	–	–	–	–	–
Cc1cc2oc3c(ccc(=O)n3C)c(=O)c2c(C)c1Cl	> 100	> 100	> 100	> 100	–	> 100	> 100	–	–	–	–	–	–	–	–	–	–	–
CCCCOc1ccc2c(c1)CC[C@@H]1[C@@H]2CC[C@]2(C)C(=O)N(CCCC)C(=O)C[C@@H]12	> 100	–	> 100	> 100	> 100	> 100	> 100	–	–	–	–	–	–	–	–	–	–	–
O=C(c1ccccc1O)c1cc(-c2ncc3c(=O)c4ccccc4oc3n2)c(-c2ccccc2O)[nH]c1=O	> 100	> 92	77.6	75.1	61.9	32.7	61.5	–	–	–	–	–	–	–	–	–	–	–
O=C(Nc1ccc(Sc2ccc(N=Nc3c(O)c(S(=O)(=O)O)cc4cc(S(=O)(=O)O)ccc34)cc2)cc1)c1ccc(N=Nc2c(O)c(S(=O)(=O)O)cc3cc(S(=O)(=O)O)ccc23)cc1	40.2	> 100	> 100	> 100	36.8	> 100	35.4	–	–	–	–	–	–	–	–	–	–	–
NCCS(=O)(=O)O	> 100	> 100	> 100	> 100	> 100	> 100	> 100	–	–	–	–	–	–	–	–	–	–	–
